Test results taken from patent US20220106296A1, “CYANOTRIAZOLE COMPOUNDS AND USES THEREOF” (Novartis AG, priority 2018, published 2022).

Experiments:
[1] = system: intracellular T. cruzi amastigotes; test: T. cruzi amastigote growth inhibition assay (NIH 3T3 host cells, β-galactosidase readout); assay type: cell-based; settings: Trypanosoma cruzi, NIH3T3, read-out: (c) T.c.* IC50
Protocol: NIH 3T3 fibroblast cells (ATCC) were maintained in RPMI-1640 medium (Life Technologies) supplemented with 10% heat-inactivated fetal bovine serum and 100 IU penicillin/100 μg/ml streptomycin at 37° C./5% CO2. T. cruzi Tulahuen parasites constitutively expressing E. coli β-galactosidase were maintained in tissue culture as an infection in NIH 3T3 fibroblast cells. Briefly, 2×10^7 T. cruzi trypomastigotes were used to infect 6×10^5 NIH 3T3 cells growing in T75 CELLSTAR tissue culture flasks and cultured at 37° C./5% CO2 until proliferating intracellular parasites lysed host 3T3 cells and were released into the culture medium (typically 6-7 days). During the infection, the tissue culture medium was changed every two days. Number of T. cruzi trypomastigotes present in 1 ml of medium was determined using a haemocytometer.
To determine compound potency on intracellular T. cruzi amastigotes, NIH 3T3 cells were re-suspended in phenol red-free RPMI-1640 medium containing 3% heat-inactivated fetal bovine serum and 100 IU penicillin/100 μg/ml streptomycin, seeded at 1,000 cells/well (40 μl) in white, clear bottom 384-well plates (Greiner Bio-One), and incubated overnight at 37° C./5% CO2. The following day, 100 nl of each compound in DMSO were transferred to individual plate wells by Echo 555 acoustic liquid handling system. After one hour incubation, 1×10^6 of tissue culture-derived T. cruzi trypomastigotes, in 10 μl of phenol red-free RPMI-1640 medium supplemented with 3% heat-inactivated fetal bovine serum and 100 IU penicillin/100 μg/ml streptomycin were added to each well. Plates were then incubated for 6 days at 37° C./5% CO2. Intracellular T. cruzi parasites were quantified by measuring the activity of parasite-expressed β-galactosidase. Ten microliters of a chromogenic β-galactosidase substrate solution (0.6 mM chlorophenol red-β-D-galactopyranoside/0.6% NP-40 in PBS; both reagents from Calbiochem) were added to each well and incubated for 2 h at room temperature. After incubation, absorption was measured at 570 nm on SpectraMax M2 plate reader (Molecular Devices). Measured absorbance values in wells with compounds were divided by the average absorbance value of the plate DMSO controls, and used for calculation of compound EC50 values as described above.

[2] = system: T. b. brucei Lister427 bloodstream form parasites; test: T. b. brucei growth inhibition assay (CellTiter-Glo, 48 hours); assay type: cell-based; settings: Trypanosoma brucei
Source text: Bloodstream form of T. b. brucei Lister427 strain was obtained from the Genomics Institute of the Novartis Research Foundation. This strain was used for carrying out growth inhibition and kill kinetics assays. T. b. gambiense STIB930 and T. b. rhodesiense STIB900 were obtained from Swiss TPH, were used for carrying out the growth inhibition assays.
Bloodstream form T. b. brucei Lister 427 parasites were continuously passaged in HMI-9 medium formulated from IMDM medium (Invitrogen), 10% heat-inactivated fetal bovine serum (FBS), 10% Serum Plus medium supplement (SAFC Biosciences), 1 mM hypoxanthine (Sigma-Aldrich), 50 μM bathocuproine disulfonic acid (Sigma-Aldrich), 1.5 mM cysteine (Sigma-Aldrich), 1 mM pyruvic acid (Sigma-Aldrich), 39 μg/mL thymidine (Sigma-Aldrich), and 14 μL/L beta-mercapthoethanol (Sigma-Aldrich); all concentrations of added components refer to that in complete HMI-9 medium. The parasites were cultured in 10 mL of HMI-9 medium in T75 CELL-STAR tissue culture flasks at 37° C./5% CO2.
To determine compound growth inhibitory potency on T. b. brucei Lister427 bloodstream form parasites, 200 nL of 10-point, 3 fold serially diluted compounds in DMSO were transferred to the wells of white, solid bottom 384-well plates (Greiner Bio-One) by either Echo 555 acoustic liquid handling system or Mosquito. Then, 1×10^4 of T. b. brucei parasites in 40 μL of HMI-9 medium were added to each well, and the plates were incubated for 48 hours at 37° C. in 5% CO2 incubators. Parasite numbers in individual plate wells were determined through quantification of intracellular ATP amount. The CellTiter-Glo luminescent cell viability reagent (Promega) was added to plate wells, and ATP-dependent luminescence signal was measured on Tecan M1000 plate Reader after 30 min incubation. Luminescence values in wells with compounds were divided by the average luminescence value of the plate DMSO controls, and used for calculation of compound IC50 values.

Compound | IC50 [1] | IC50 [2]
N#Cc1ncn(CC(=O)N2Cc3ccc(-c4cccnc4C(F)F)cc3C2)n1 [Example 1, 1-(2-(5-(2-(difluoromethyl)pyridin-3-yl)isoindolin-2-yl)-2-oxoethyl)-1H-1,2,4-triazole-3-carbonitrile] | 0.1 to 1 µM | 0.1 to 1 µM
N#Cc1ncn(CC(=O)N2Cc3ccc(-c4c(Cl)cncc4C(F)(F)F)cc3C2)n1 [Example 2, 1-(2-(5-(3-chloro-5-(trifluoromethyl)pyridin-4-yl)isoindolin-2-yl)-2-oxoethyl)-1H-1,2,4-triazole-3-carbonitrile] | < 0.1 µM | 0.1 to 1 µM
N#Cc1ncn(CC(=O)N2Cc3ccc(-c4cc(F)ncc4Cl)cc3C2)n1 [Example 3, 1-(2-(5-(5-chloro-2-fluoropyridin-4-yl)isoindolin-2-yl)-2-oxoethyl)-1H-1,2,4-triazole-3-carbonitrile] | < 0.1 µM | < 0.1 µM
N#Cc1ncn(CC(=O)N2Cc3ccc(-c4cccc(Cl)c4C(F)(F)F)cc3C2)n1 [Example 4, 1-(2-(5-(3-chloro-2-(trifluoromethyl)phenyl)isoindolin-2-yl)-2-oxoethyl)-1H-1,2,4-triazole-3-carbonitrile] | < 0.1 µM | < 0.1 µM
N#Cc1ncn(CC(=O)N2Cc3ccc(-c4cccnc4OCC(F)(F)F)cc3C2)n1 [Example 5, 1-(2-oxo-2-(5-(2-(2,2,2-trifluoroethoxy)pyridin-3-yl)isoindolin-2-yl)ethyl)-1H-1,2,4-triazole-3-carbonitrile] | 0.1 to 1 µM | 0.1 to 1 µM
Cc1ccc(-c2ccc3c(c2)CN(C(=O)Cn2cnc(C#N)n2)C3)c(C(F)(F)F)n1 [Example 6, 1-(2-(5-(6-methyl-2-(trifluoromethyl)pyridin-3-yl)isoindolin-2-yl)-2-oxoethyl)-1H-1,2,4-triazole-3-carbonitrile] | < 0.1 µM | < 0.1 µM
N#Cc1ncn(CC(=O)N2Cc3ccc(-c4c(C(F)(F)F)ccnc4Cl)cc3C2)n1 [Example 7, 1-(2-(5-(2-chloro-4-(trifluoromethyl)pyridin-3-yl)isoindolin-2-yl)-2-oxoethyl)-1H-1,2,4-triazole-3-carbonitrile] | < 0.1 µM | 0.1 to 1 µM
N#Cc1ncn(CC(=O)N2Cc3ccc(-c4cncc(F)c4C(F)(F)F)cc3C2)n1 [Example 9, 1-(2-(5-(5-fluoro-4-(trifluoromethyl)pyridin-3-yl)isoindolin-2-yl)-2-oxoethyl)-1H-1,2,4-triazole-3-carbonitrile] | 0.1 to 1 µM | 0.1 to 1 µM
N#Cc1ncn(CC(=O)N2Cc3ccc(-c4c(F)cc(F)cc4Cl)cc3C2)n1 [Example 10, 1-(2-(5-(2-chloro-4,6-difluorophenyl)isoindolin-2-yl)-2-oxoethyl)-1H-1,2,4-triazole-3-carbonitrile] | < 0.1 µM | < 0.1 µM
N#Cc1ncn(CC(=O)N2Cc3ccc(-c4ccncc4)cc3C2)n1 [Example 66, 1-(2-oxo-2-(5-(pyridin-4-yl)isoindolin-2-yl)ethyl)-1H-1,2,4-triazole-3-carbonitrile] |  | ≥ 1 µM
N#Cc1ncn(CC(=O)N2Cc3ccc(-c4ccc(Br)cc4)cc3C2)n1 [Example 67, 1-(2-(5-(4-bromophenyl)isoindolin-2-yl)-2-oxoethyl)-1H-1,2,4-triazole-3-carbonitrile] |  | ≥ 1 µM
N#Cc1ncn(CC(=O)N2Cc3ccc(-c4ccc(F)c(Cl)c4)cc3C2)n1 [Example 68, 1-(2-(5-(3-chloro-4-fluorophenyl)isoindolin-2-yl)-2-oxoethyl)-1H-1,2,4-triazole-3-carbonitrile] |  | ≥ 1 µM
N#Cc1ncn(CC(=O)N2Cc3ccc(-c4ccccc4-c4ccccc4)cc3C2)n1 [Example 69, 1-(2-(5-([1,1′-biphenyl]-2-yl)isoindolin-2-yl)-2-oxoethyl)-1H-1,2,4-triazole-3-carbonitrile] |  | ≥ 1 µM
N#Cc1ncn(CC(=O)N2Cc3ccc(-c4ccc(Cl)c(F)c4)cc3C2)n1 [Example 70, 1-(2-(5-(4-chloro-3-fluorophenyl)isoindolin-2-yl)-2-oxoethyl)-1H-1,2,4-triazole-3-carbonitrile] |  | ≥ 1 µM
N#Cc1ncn(CC(=O)N2Cc3ccc(-c4ccc(Cl)cc4)cc3C2)n1 [Example 71, 1-(2-(5-(4-chlorophenyl)isoindolin-2-yl)-2-oxoethyl)-1H-1,2,4-triazole-3-carbonitrile] |  | ≥ 1 µM
N#Cc1ncn(CC(=O)N2Cc3ccc(-c4ccc(F)c(F)c4)cc3C2)n1 [Example 72, 1-(2-(5-(3,4-difluorophenyl)isoindolin-2-yl)-2-oxoethyl)-1H-1,2,4-triazole-3-carbonitrile] |  | ≥ 1 µM
N#Cc1ncn(CC(=O)N2Cc3ccc(-c4cccnc4F)cc3C2)n1 [Example 73, 1-(2-(5-(2-fluoropyridin-3-yl)isoindolin-2-yl)-2-oxoethyl)-1H-1,2,4-triazole-3-carbonitrile] |  | ≥ 1 µM
N#Cc1ncn(CC(=O)N2Cc3ccc(-c4cc(F)cc(F)c4)cc3C2)n1 [Example 74, 1-(2-(5-(3,5-difluorophenyl)isoindolin-2-yl)-2-oxoethyl)-1H-1,2,4-triazole-3-carbonitrile] |  | ≥ 1 µM
COc1ccccc1-c1ccc2c(c1)CN(C(=O)Cn1cnc(C#N)n1)C2 [Example 75, 1-(2-(5-(2-methoxyphenyl)isoindolin-2-yl)-2-oxoethyl)-1H-1,2,4-triazole-3-carbonitrile] |  | ≥ 1 µM
N#Cc1ncn(CC(=O)N2Cc3ccc(-c4ccc(C(F)(F)F)cc4)cc3C2)n1 [Example 76, 1-(2-oxo-2-(5-(4-(trifluoromethyl)phenyl)isoindolin-2-yl)ethyl)-1H-1,2,4-triazole-3-carbonitrile] |  | ≥ 1 µM
COc1cccc(-c2ccc3c(c2)CN(C(=O)Cn2cnc(C#N)n2)C3)c1 [Example 77, 1-(2-(5-(3-methoxyphenyl)isoindolin-2-yl)-2-oxoethyl)-1H-1,2,4-triazole-3-carbonitrile] |  | ≥ 1 µM
Cc1cc(-c2ccc3c(c2)CN(C(=O)Cn2cnc(C#N)n2)C3)ccc1C(F)(F)F [Example 78, 1-(2-(5-(3-methyl-4-(trifluoromethyl)phenyl)isoindolin-2-yl)-2-oxoethyl)-1H-1,2,4-triazole-3-carbonitrile] |  | ≥ 1 µM
N#Cc1ncn(CC(=O)N2Cc3ccc(-c4ccccc4)cc3C2)n1 [Example 79, 1-(2-oxo-2-(5-phenylisoindolin-2-yl)ethyl)-1H-1,2,4-triazole-3-carbonitrile] |  | ≥ 1 µM
N#Cc1ncn(CC(=O)N2Cc3ccc(-c4cccc(Cl)c4)cc3C2)n1 [Example 80, 1-(2-(5-(3-chlorophenyl)isoindolin-2-yl)-2-oxoethyl)-1H-1,2,4-triazole-3-carbonitrile] |  | ≥ 1 µM
N#Cc1ncn(CC(=O)N2Cc3ccc(-c4cccc(F)c4)cc3C2)n1 [Example 81, 1-(2-(5-(3-fluorophenyl)isoindolin-2-yl)-2-oxoethyl)-1H-1,2,4-triazole-3-carbonitrile] |  | ≥ 1 µM
N#Cc1ncn(CC(=O)N2Cc3ccc(-c4ccc(F)cc4)cc3C2)n1 [Example 82, 1-(2-(5-(4-fluorophenyl)isoindolin-2-yl)-2-oxoethyl)-1H-1,2,4-triazole-3-carbonitrile] |  | ≥ 1 µM
N#Cc1ncn(CC(=O)N2Cc3ccc(-c4ccc(OC(F)(F)F)cc4)cc3C2)n1 [Example 83, 1-(2-oxo-2-(5-(4-(trifluoromethoxy)phenyl)isoindolin-2-yl)ethyl)-1H-1,2,4-triazole-3-carbonitrile] |  | ≥ 1 µM
